Results from the NIST ThermoML archive (doi:10.1021/acs.jced.8b00011).
“And” between values parts separate entries of the source, which are not always exact repeats. Equal entries are not always repeated. ± gives the expanded uncertainty stated by the source.

Details: Liquid; for mass density: Vibrating tube method; for electrical conductivity: electrochemical impedance spectroscopy

CCCCC[P+](CC)(CC)CC.O=S(=O)([N-]S(=O)(=O)C(F)(F)F)C(F)(F)F
Details | electrical conductivity [S/m] | viscosity
273.15 K, 100 kPa, Concentric cylinders viscometry | – | 391.1 ± 13 mPa·s
273.15 K, 100 kPa, Falling or rolling sphere viscometry | – | 396.2 ± 28 mPa·s and 396 ± 28 mPa·s
278.15 K, 100 kPa, Concentric cylinders viscometry | – | 275.6 ± 8.5 mPa·s
278.15 K, 100 kPa, Falling or rolling sphere viscometry | – | 278.3 ± 16 mPa·s and 278.2 ± 16 mPa·s
283.14 K, 149300 kPa, Frequency=0 MHz | 0.0123 ± 0.00025 | –
283.14 K, 174300 kPa, Frequency=0 MHz | 0.00927 ± 0.00019 | –
283.15 K, 100 kPa, Concentric cylinders viscometry | – | 199.6 ± 5.6 mPa·s
283.15 K, 100 kPa, Falling or rolling sphere viscometry | – | 201.3 ± 9.7 mPa·s and 200.4 ± 9.7 mPa·s
283.15 K, 100 kPa, Frequency=0 MHz | 0.076 ± 0.0015 | –
283.15 K, 1200 kPa, Frequency=0 MHz | 0.0749 ± 0.0015 | –
283.15 K, 3100 kPa, Frequency=0 MHz | 0.0728 ± 0.0015 | –
283.15 K, 5100 kPa, Frequency=0 MHz | 0.0709 ± 0.0014 | –
283.15 K, 10600 kPa, Falling or rolling sphere viscometry | – | 228.6 ± 12 mPa·s
283.15 K, 15400 kPa, Frequency=0 MHz | 0.0618 ± 0.0012 | –
283.15 K, 20500 kPa, Frequency=0 MHz | 0.0578 ± 0.0012 | –
283.15 K, 20600 kPa, Falling or rolling sphere viscometry | – | 263 ± 15 mPa·s
283.15 K, 25600 kPa, Frequency=0 MHz | 0.054 ± 0.0011 | –
283.15 K, 30300 kPa, Falling or rolling sphere viscometry | – | 302.4 ± 19 mPa·s
283.15 K, 30600 kPa, Frequency=0 MHz | 0.0507 ± 0.001 | –
283.15 K, 40800 kPa, Falling or rolling sphere viscometry | – | 352.7 ± 24 mPa·s
283.15 K, 42000 kPa, Frequency=0 MHz | 0.0437 ± 0.00088 | –
283.15 K, 50300 kPa, Frequency=0 MHz | 0.0394 ± 0.00079 | –
283.15 K, 50700 kPa, Falling or rolling sphere viscometry | – | 398.9 ± 28 mPa·s
283.15 K, 60900 kPa, Falling or rolling sphere viscometry | – | 459.1 ± 35 mPa·s
283.15 K, 71400 kPa, Falling or rolling sphere viscometry | – | 527.1 ± 42 mPa·s
283.15 K, 74900 kPa, Frequency=0 MHz | 0.0294 ± 0.00059 | –
283.15 K, 80400 kPa, Falling or rolling sphere viscometry | – | 599.8 ± 51 mPa·s
283.15 K, 88200 kPa, Falling or rolling sphere viscometry | – | 667.7 ± 59 mPa·s
283.15 K, 94700 kPa, Falling or rolling sphere viscometry | – | 740.8 ± 68 mPa·s
283.15 K, 99800 kPa, Frequency=0 MHz | 0.0219 ± 0.00044 | –
283.15 K, 126100 kPa, Frequency=0 MHz | 0.016 ± 0.00032 | –
283.16 K, 2100 kPa, Frequency=0 MHz | 0.0741 ± 0.0015 | –
283.16 K, 10300 kPa, Frequency=0 MHz | 0.0661 ± 0.0013 | –
283.16 K, 199900 kPa, Frequency=0 MHz | 0.00703 ± 0.00014 | –
288.15 K, 100 kPa, Concentric cylinders viscometry | – | 148 ± 3.9 mPa·s
293.15 K, 100 kPa, Concentric cylinders viscometry | – | 111.8 ± 2.7 mPa·s and 112.2 ± 2.8 mPa·s and 112 ± 2.7 mPa·s
293.15 K, 100 kPa, Falling or rolling sphere viscometry | – | 112.7 ± 3.8 mPa·s
298.14 K, 176500 kPa, Frequency=0 MHz | 0.0255 ± 0.00051 | –
298.15 K, 100 kPa, Concentric cylinders viscometry | – | 86.33 ± 2 mPa·s
298.15 K, 100 kPa, Falling or rolling sphere viscometry | – | 87.05 ± 3.3 mPa·s and 87.04 ± 3.3 mPa·s and 87.45 ± 3.4 mPa·s
298.15 K, 100 kPa, Frequency=0 MHz | 0.165 ± 0.0033 | –
298.15 K, 600 kPa, Falling or rolling sphere viscometry | – | 86.57 ± 2.4 mPa·s
298.15 K, 3400 kPa, Frequency=0 MHz | 0.159 ± 0.0032 | –
298.15 K, 5100 kPa, Frequency=0 MHz | 0.155 ± 0.0031 | –
298.15 K, 9800 kPa, Frequency=0 MHz | 0.146 ± 0.0029 | –
298.15 K, 10500 kPa, Falling or rolling sphere viscometry | – | 99.67 ± 3.1 mPa·s
298.15 K, 15000 kPa, Frequency=0 MHz | 0.138 ± 0.0028 | –
298.15 K, 20500 kPa, Falling or rolling sphere viscometry | – | 114.4 ± 3.9 mPa·s
298.15 K, 20900 kPa, Frequency=0 MHz | 0.129 ± 0.0026 | –
298.15 K, 25800 kPa, Frequency=0 MHz | 0.122 ± 0.0024 | –
298.15 K, 30600 kPa, Falling or rolling sphere viscometry | – | 130.4 ± 4.9 mPa·s
298.15 K, 31200 kPa, Frequency=0 MHz | 0.114 ± 0.0023 | –
298.15 K, 40500 kPa, Falling or rolling sphere viscometry | – | 148 ± 6 mPa·s
298.15 K, 41000 kPa, Frequency=0 MHz | 0.102 ± 0.002 | –
298.15 K, 50500 kPa, Falling or rolling sphere viscometry | – | 167.4 ± 7.3 mPa·s
298.15 K, 51100 kPa, Frequency=0 MHz | 0.0914 ± 0.0018 | –
298.15 K, 56700 kPa, Frequency=0 MHz | 0.0859 ± 0.0017 | –

Details | electrical conductivity | mass density
273.15 K, 100 kPa | – | 1323.74 ± 1.9 kg/m3 and 1324 ± 1.9 kg/m3 and 1323.6 ± 1.3 kg/m3
273.15 K, 101.33 kPa | 0.0399 S/m and 0.04 S/m | –
278.15 K, 100 kPa | – | 1319.92 ± 1.9 kg/m3 and 1319.6 ± 1.9 kg/m3 and 1319.31 ± 1.3 kg/m3
278.15 K, 101.33 kPa | 0.0556 S/m and 0.0557 S/m | –
283.15 K, 100 kPa | – | 1315.3 ± 1.9 kg/m3 [middle of 4 runs]
283.15 K, 101.33 kPa | 0.0756 S/m and 0.076 S/m and 0.0755 S/m | –
288.15 K, 100 kPa | – | 1311.35 ± 1.9 kg/m3 and 1311 ± 1.9 kg/m3 and 1310.72 ± 1.3 kg/m3
288.16 K, 101.33 kPa | 0.1 S/m | –
293.15 K, 100 kPa | – | 1306.8 ± 1.8 kg/m3 [middle of 4 runs]
293.15 K, 101.33 kPa | 0.13 S/m | –
298.15 K, 100 kPa | – | 1302.45 ± 1.8 kg/m3 [middle of 6 runs]
298.15 K, 101.33 kPa | 0.166 S/m and 0.165 S/m | –
298.15 K, 1000 kPa | – | 1302.82 ± 1.3 kg/m3
298.15 K, 5000 kPa | – | 1305.75 ± 1.3 kg/m3
298.15 K, 10000 kPa | – | 1309.28 ± 1.3 kg/m3
298.15 K, 15000 kPa | – | 1312.76 ± 1.4 kg/m3
298.15 K, 20000 kPa | – | 1316.13 ± 1.4 kg/m3
298.15 K, 25000 kPa | – | 1319.42 ± 1.4 kg/m3
298.15 K, 30000 kPa | – | 1322.62 ± 1.4 kg/m3
298.15 K, 35000 kPa | – | 1325.82 ± 1.5 kg/m3
298.15 K, 40000 kPa | – | 1328.9 ± 1.5 kg/m3
298.15 K, 45000 kPa | – | 1331.96 ± 1.6 kg/m3
298.15 K, 50010 kPa | – | 1334.83 ± 1.6 kg/m3
